Assay results from US8722894B2, “1,3-disubstituted-4-phenyl-1H-pyridin-2-ones” (Janssen Pharmaceuticals, Inc., priority 2007, dated 2014).

What was measured:
[1] = target: T1, human mGluR2 receptor (Homo sapiens, UniProt Q14416); test: [35S]GTPγS binding assay (GTPγS-PAM), membranes from cells transfected with the human mGluR2 receptor; type: biochemical; conditions: in presence of mGluR2 agonist glutamate at a predetermined EC25 concentration; CHO-cell membranes; averages of duplicate values of 11-concentration response curves; pEC50 = -logEC50; read-out: GTPgS - hR2 PAM pEC50 (converted)
T1 construct: expressed in transfected cells; host or cells: CHO cells
Procedure: The [^35S]GTPγS binding assay is a functional membrane-based assay used to study G-protein coupled receptor (GPCR) function whereby incorporation of a non-hydrolysable form of GTP, [^35S]GTPγS (guanosine 5′-triphosphate, labelled with […] ^35S), is measured. The G-protein α subunit catalyzes the exchange of guanosine 5′-diphosphate (GDP) by guanosine triphosphate (GTP) and on activation of the GPCR by an agonist, [^35S]GTPγS, becomes incorporated and cannot be cleaved to continue the exchange cycle (Harper (1998) Current Protocols in Pharmacology 2.6.1-10, John Wiley & Sons, Inc.). […] Here we describe the use of the [^35S]GTPγS binding assay using membranes from cells transfected with the human mGluR2 receptor and adapted from Schaffhauser et al ((2003) Molecular Pharmacology 4:798-810) for the detection of the positive allosteric modulation (PAM) properties of the compounds of this invention.
CHO-cells were cultured to pre-confluence and stimulated with 5 mM butyrate for 24 hours, prior to washing in PBS, and then collection by scraping in homogenisation buffer (50 mM Tris-HCl buffer, pH 7.4, 4° C.). Cell lysates were homogenized briefly (15 s) using an ultra-turrax homogenizer. The homogenate was centrifuged at 23 500×g for 10 minutes and the supernatant discarded. The pellet was resuspended in 5 mM Tris-HCl, pH 7.4 and centrifuged again (30 000×g, 20 min, 4° C.). The final pellet was resuspended in 50 mM HEPES, pH 7.4 and stored at −80° C. in appropriate aliquots before use. Protein concentration was determined by the Bradford method (Bio-Rad, USA) with bovine serum albumin as standard.
Measurement of mGluR2 positive allosteric modulatory activity of test compounds in membranes containing human mGluR2 was performed using frozen membranes that were thawed and briefly homogenised prior to pre-incubation in 96-well microplates (15 μg/assay well, 30 minutes, 30° C.) in assay buffer (50 mM HEPES pH 7.4, 100 mM NaCl, 3 mM MgCl2, 50 μM GDP, 10 μg/ml saponin,) with increasing concentrations of positive allosteric modulator (from 0.3 nM to 50 μM) and either a minimal pre-determined concentration of glutamate (PAM assay), or no added glutamate. For the PAM assay, membranes were pre-incubated with glutamate at EC25 concentration, i.e. a concentration that gives 25% of the maximal response glutamate, and is in accordance to published data (Pin et al. (1999) Eur. J. Pharmacol. 375:277-294). […] Filters were then air-dried, and 40 μl of liquid scintillation cocktail (Microscint-O) was added to each well, and membrane-bound [^35S]GTPγS was measured in a 96-well scintillation plate reader (Top-Count, Perkin-Elmer, USA). Non-specific [^35S]GTPγS binding is determined in the presence of cold 10 μM GTP. […]

T1 sequence (Q14416 19-872): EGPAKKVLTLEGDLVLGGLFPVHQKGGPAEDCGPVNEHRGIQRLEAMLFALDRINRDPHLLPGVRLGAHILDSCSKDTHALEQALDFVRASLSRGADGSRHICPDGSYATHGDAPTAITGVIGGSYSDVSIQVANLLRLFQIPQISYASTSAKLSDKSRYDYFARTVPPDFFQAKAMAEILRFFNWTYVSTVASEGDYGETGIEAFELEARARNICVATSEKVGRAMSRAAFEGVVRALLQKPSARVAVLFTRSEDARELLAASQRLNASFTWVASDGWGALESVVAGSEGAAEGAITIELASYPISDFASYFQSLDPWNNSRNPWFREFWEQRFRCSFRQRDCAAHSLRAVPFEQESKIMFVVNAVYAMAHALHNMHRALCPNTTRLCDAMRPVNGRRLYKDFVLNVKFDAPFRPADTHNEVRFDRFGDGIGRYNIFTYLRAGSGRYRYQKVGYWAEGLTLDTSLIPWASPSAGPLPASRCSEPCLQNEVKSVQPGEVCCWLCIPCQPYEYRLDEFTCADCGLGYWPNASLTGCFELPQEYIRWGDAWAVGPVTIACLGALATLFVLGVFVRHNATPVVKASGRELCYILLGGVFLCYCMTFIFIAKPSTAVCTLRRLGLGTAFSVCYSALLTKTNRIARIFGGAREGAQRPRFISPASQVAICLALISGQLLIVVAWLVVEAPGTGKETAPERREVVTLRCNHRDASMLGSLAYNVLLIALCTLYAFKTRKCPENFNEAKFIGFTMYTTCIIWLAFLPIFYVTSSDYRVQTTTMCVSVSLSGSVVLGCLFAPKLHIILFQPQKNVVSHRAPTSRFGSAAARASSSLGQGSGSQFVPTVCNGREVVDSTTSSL

Row | melting point [°C] | EC50 [1] [nM] | Compound
1 | 154 | 275 | O=c1c(Cl)c(-c2ccc(OC3CCOCC3)c(Cl)c2)ccn1CCC1CC1 [Compound 4]
2 | 173 | 813 | O=c1c(Cl)c(-c2ccc(NC3CCOCC3)c(C(F)(F)F)c2)ccn1CC1CC1 [Compound 5]
3 | 227.4 | 39.8 | CCCCn1ccc(-c2ccc(NC3CCC(C)(O)CC3)c(Cl)c2)c(Cl)c1=O (centres unmarked) [Compound 7]
4 | 231 | 575 | O=c1c(Cl)c(-c2ccc(NC3CCOCC3)c(Cl)c2)ccn1CC1CC1 [Compound 6]
